In one test the target is Escherichia coli DNA gyrase A/B tetramer (Escherichia coli (strain K12), UniProt P0AES4+P0AES6). As to the kind of experiment: DNA gyrase supercoiling activity fluorescence polarisation assay. Format: biochemical.
Details: not given
In short, it runs like this: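 Supercoiling reactions quenched with 40 nM 5′-BODIPY-FL triplex-forming oligonucleotide probe in pH 3.5 NaCl/sodium acetate buffer; after 60 min, fluorescence anisotropy read (ex 485/em 535 nm). IC50 by nonlinear regression, normalised to 0.8% DMSO (100% activity) and 5 μM ciprofloxacin (0% activity).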
For orientation: Polarisation of emitted light reports the rotation of a fluorescent probe.
`CC(C)NC(=O)c1noc2c(Cl)c3c(nc12)CC1(C(=O)NC(=O)NC1=O)[C@H]1[C@H](C)O[C@H](C)CN31` (relative stereo) [Example 127, (2R,4S,4aS)-rel-Chloro-N-isopropyl-2,4-dimethyl-2′,4′,6′-trioxo-2,2′,3′,4,4a,4′,6,6′-octahydro-1H,1′H-spiro[isoxazolo[4,5-g][1,4]oxazino[4,3-a][1,5]naphthyridine-5,5′-pyrimidine]-8-carboxamide] had an IC50 of 19000 nM.

Still in this test, the particulars now being: 5 nM enzyme, relaxed plasmid, 0.3 mM ATP, ambient temperature; read-out: E. coli DNA gyrase supercoiling IC50.
As to `C[C@@H]1CN2c3c(nc4c(-c5cncs5)noc4c3Cl)CC3(C(=O)NC(=O)NC3=O)[C@H]2[C@H](C)O1` (relative stereo) [Example 115, (2R,4S,4aS)-rel-11-chloro-2,4-dimethyl-8-(thiazol-5-yl)-2,4,4a,6-tetrahydro-1H,1′H-spiro[isoxazolo[4,5-g][1,4]oxazino[4,3-a][1,5]naphthyridine-5,5′-pyrimidine]-2′,4′,6′(3′H)-trione], the IC50 was 1100 nM. Still for that read-out and setting: to `C[C@@H]1CN2c3c(nc4c(-c5sc(Cl)nc5Cl)noc4c3Cl)CC3(C(=O)NC(=O)NC3=O)[C@H]2[C@H](C)O1` (relative stereo) [Example 116, (2R,4S,4aS)-rel-11-chloro-2,4-dimethyl-8-(2,4-dichlorothiazol-5-yl)-2,4,4a,6-tetrahydro-1H,1′H-spiro[isoxazolo[4,5-g][1,4]oxazino[4,3-a][1,5]naphthyridine-5,5′-pyrimidine]-2′,4′,6′(3′H)-trione] belongs 2000 nM; to `Cc1ncc(-c2noc3c(Cl)c4c(nc23)CC2(C(=O)NC(=O)NC2=O)[C@H]2[C@H](C)O[C@H](C)CN42)s1` (relative stereo) [Example 117, (2R,4S,4aS)-rel-11-Chloro-2,4-dimethyl-8-(2-methylthiazol-5-yl)-2,4,4a,6-tetrahydro-1H,1′H-spiro[isoxazolo[4,5-g][1,4]oxazino[4,3-a][1,5]naphthyridine-5,5′-pyrimidine]-2′,4′,6′(3′H)-trione], 2000 nM; to `C[C@@H]1CN2c3c(nc4c(-c5cnc(Br)s5)noc4c3Cl)CC3(C(=O)NC(=O)NC3=O)[C@H]2[C@H](C)O1` (relative stereo) [Example 119, (2R,4S,4aS)-rel-11-chloro-2,4-dimethyl-8-(2-bromothiazol-5-yl)-2,4,4a,6-tetrahydro-1H,1′H-spiro[isoxazolo[4,5-g][1,4]oxazino[4,3-a][1,5]naphthyridine-5,5′-pyrimidine]-2′,4′,6′(3′H)-trione], 3100 nM. As to `C[C@@H]1CN2c3c(nc4c(-c5ccc(C#N)c(F)c5)noc4c3Cl)CC3(C(=O)NC(=O)NC3=O)[C@H]2[C@H](C)O1` (relative stereo) [Example 121, 4-((2R,4S,4aS)-rel-11-chloro-2,4-dimethyl-2′,4′,6′-trioxo-2,2′,3′,4,4a,4′,6,6′-octahydro-1H,1′H-spiro[isoxazolo[4,5-g][1,4]oxazino[4,3-a][1,5]naphthyridine-5,5′-pyrimidine]-8-yl)-2-fluorobenzonitrile], the 50% inhibitory concentration (IC50) was determined as 600 nM.

For the compound `Cc1cnc(-c2noc3c(Cl)c4c(nc23)CC2(C(=O)NC(=O)NC2=O)[C@H]2[C@H](C)O[C@H](C)CN42)s1` (relative stereo) [Example 122, (2R,4S,4aS)-rel-11-Chloro-2,4-dimethyl-8-(5-methylthiazol-2-yl)-2,4,4a,6-tetrahydro-1H,1′H-spiro[isoxazolo[4,5-g][1,4]oxazino[4,3-a][1,5]naphthyridine-5,5′-pyrimidine]-2′,4′,6′(3′H)-trione], the IC50 came out at 500 nM. Same read-out and setting: then `C[C@@H]1CN2c3c(nc4c(-c5ccc(C(N)=O)nc5)noc4c3Cl)CC3(C(=O)NC(=O)NC3=O)[C@H]2[C@H](C)O1` (relative stereo) [Example 123, 5-((2R,4S,4aS)-rel-11-chloro-2,4-dimethyl-2′,4′,6′-trioxo-2,2′,3′,4,4a,4′,6,6′-octahydro-1H,1′H-spiro[isoxazolo[4,5-g][1,4]oxazino[4,3-a][1,5]naphthyridine-5,5′-pyrimidine]-8-yl)picolinamide], with 5800 nM. On the same count and under the same terms, then `CNC(=O)c1noc2c(Cl)c3c(nc12)CC1(C(=O)NC(=O)NC1=O)[C@H]1[C@H](C)O[C@H](C)CN31` (relative stereo) [Example 125, (2R,4S,4aS)-rel-11-Chloro-N,2,4-trimethyl-2′,4′,6′-trioxo-2,2′,3′,4,4a,4′,6,6′-octahydro-1H,1′H-spiro[isoxazolo[4,5-g][1,4]oxazino[4,3-a][1,5]naphthyridine-5,5′-pyrimidine]-8-carboxamide], with 700 nM. Same read-out and setting: then `CCNC(=O)c1noc2c(Cl)c3c(nc12)CC1(C(=O)NC(=O)NC1=O)[C@H]1[C@H](C)O[C@H](C)CN31` (relative stereo) [Example 126, (2R,4S,4aS)-rel-11-chloro-N-ethyl-2,4-dimethyl-2′,4′,6′-trioxo-2,2′,3′,4,4a,4′,6,6′-octahydro-1H,1′H-spiro[isoxazolo[4,5-g][1,4]oxazino[4,3-a][1,5]naphthyridine-5,5′-pyrimidine]-8-carboxamide], with 500 nM. As to `C[C@@H]1CN2c3c(nc4c(C(=O)NC(C)(C)C)noc4c3Cl)CC3(C(=O)NC(=O)NC3=O)[C@H]2[C@H](C)O1` (relative stereo) [Example 128, (2R,4S,4aS)-rel-N-tert-butyl-11-chloro-2,4-dimethyl-2′,4′,6′-trioxo-2,2′,3′,4,4a,4′,6,6′-octahydro-1H,1′H-spiro[isoxazolo[4,5-g][1,4]oxazino[4,3-a][1,5]naphthyridine-5,5′-pyrimidine]-8-carboxamide], the IC50 was determined as 19000 nM. Still for that read-out and setting: then `C[C@@H]1CN2c3c(nc4c(C(=O)NCC(C)(C)C)noc4c3Cl)CC3(C(=O)NC(=O)NC3=O)[C@H]2[C@H](C)O1` (relative stereo) [Example 129, (2R,4S,4aS)-rel-11-Chloro-2,4-dimethyl-N-neopentyl-2′,4′,6′-trioxo-2,2′,3′,4,4a,4′,6,6′-octahydro-1H,1′H-spiro[isoxazolo[4,5-g][1,4]oxazino[4,3-a][1,5]naphthyridine-5,5′-pyrimidine]-8-carboxamide], with 31000 nM; and `C[C@@H]1CN2c3c(nc4c(C(=O)N5CC(F)(F)C5)noc4c3Cl)CC3(C(=O)NC(=O)NC3=O)[C@H]2[C@H](C)O1` (relative stereo) [Example 130, (2R,4S,4aS)-rel-11-Chloro-8-(3,3-difluoroazetidine-1-carbonyl)-2,4-dimethyl-2,4,4a,6-tetrahydro-1H,1′H-spiro[isoxazolo[4,5-g][1,4]oxazino[4,3-a][1,5]naphthyridine-5,5′-pyrimidine]-2′,4′,6′(3′H)-trione], with 30000 nM; and `C[C@@H]1CN2c3c(nc4c(C(=O)NCc5ccccc5)noc4c3Cl)CC3(C(=O)NC(=O)NC3=O)[C@H]2[C@H](C)O1` (relative stereo) [Example 131, (2R,4S,4aS)-rel-N-benzyl-11-chloro-2,4-dimethyl-2′,4′,6′-trioxo-2,2′,3′,4,4a,4′,6,6′-octahydro-1H,1′H-spiro[isoxazolo[4,5-g][1,4]oxazino[4,3-a][1,5]naphthyridine-5,5′-pyrimidine]-8-carboxamide], with 4400 nM. In the case of `C[C@@H]1CN2c3c(nc4c(C(=O)NCc5ccc(C#N)cc5)noc4c3Cl)CC3(C(=O)NC(=O)NC3=O)[C@H]2[C@H](C)O1` (relative stereo) [Example 132, (2R,4S,4aS)-rel-11-chloro-N-(4-cyanobenzyl)-2,4-dimethyl-2′,4′,6′-trioxo-2,2′,3′,4,4a,4′,6,6′-octahydro-1H,1′H-spiro[isoxazolo[4,5-g][1,4]oxazino[4,3-a][1,5]naphthyridine-5,5′-pyrimidine]-8-carboxamide], the 50% inhibitory concentration (IC50) came to 7700 nM.

With `C[C@@H]1CN2c3c(nc4c(C(=O)NCc5cccc(C#N)c5)noc4c3Cl)CC3(C(=O)NC(=O)NC3=O)[C@H]2[C@H](C)O1` (relative stereo) [Example 133, (2R,4S,4aS)-rel-11-chloro-N-(3-cyanobenzyl)-2,4-dimethyl-2′,4′,6′-trioxo-2,2′,3′,4,4a,4′,6,6′-octahydro-1H,1′H-spiro[isoxazolo[4,5-g][1,4]oxazino[4,3-a][1,5]naphthyridine-5,5′-pyrimidine]-8-carboxamide], the IC50 is 13000 nM. The same measure, in the same setting: then `CCOC(=O)c1noc2c(F)c3c(cc12)CC1(C(=O)NC(=O)NC1=O)[C@H]1[C@H](C)O[C@H](C)CN31` (relative stereo) [Example 134, (2R,4S,4aS)-rel-ethyl 11-fluoro-2,4-dimethyl-2′,4′,6′-trioxo-2,2′,3′,4,4a,4′,6,6′-octahydro-1H,1′H-spiro[isoxazolo[4,5-g][1,4]oxazino[4,3-a]quinoline-5,5′-pyrimidine]-8-carboxylate], with 1000 nM; and `C[C@@H]1CN2c3c(cc4c(C(=O)N5CCOCC5)noc4c3F)CC3(C(=O)NC(=O)NC3=O)[C@H]2[C@H](C)O1` (relative stereo) [Example 135, (2R,4S,4aS)-rel-11-fluoro-2,4-dimethyl-8-(morpholine-4-carbonyl)-2,4,4a,6-tetrahydro-1H,1′H-spiro[isoxazolo[4,5-g][1,4]oxazino[4,3-a]quinoline-5,5′-pyrimidine]-2′,4′,6′(3′H)-trione], with 3300 nM; and `C[C@@H]1CN2c3c(cc4c(C(=O)N(C)C)noc4c3F)CC3(C(=O)NC(=O)NC3=O)[C@H]2[C@H](C)O1` (relative stereo) [Example 136, (2R,4S,4aS)-rel-11-fluoro-N,N,2,4-tetramethyl-2′,4′,6′-trioxo-2,2′,3′,4,4a,4′,6,6′-octahydro-1H,1′H-spiro[isoxazolo[4,5-g][1,4]oxazino[4,3-a]quinoline-5,5′-pyrimidine]-8-carboxamide], with 2800 nM. Still for that read-out and setting: then `CON(C)C(=O)c1noc2c(F)c3c(cc12)CC1(C(=O)NC(=O)NC1=O)[C@H]1[C@H](C)O[C@H](C)CN31` (relative stereo) [Example 137, (2R,4S,4aS)-rel-11-fluoro-N-methoxy-N,2,4-trimethyl-2′,4′,6′-trioxo-2,2′,3′,4,4a,4′,6,6′-octahydro-1H,1′H-spiro[isoxazolo[4,5-g][1,4]oxazino[4,3-a]quinoline-5,5′-pyrimidine]-8-carboxamide], with 2300 nM.

As a reminder, the IC50 is the concentration at which inhibition is half-maximal.

Values taken from patent US9040528B2, “Chemical compounds 542” (AstraZeneca AB, priority 2008, dated 2015).
